Measurements: patent US11752105B2, “Spray drying process with continuous preparation of spray solution” (Hovione Scientia Limited, priority 2018, dated 2023)

Experiment: Continuous solution preparation: suspension passed through series of five micro-reactors (continuous dissolution)
Type: physicochemical
Details: solvent H2O; concentration 0.3 % wt
From the text: The resulting suspension was continuously passed through a series of five micro-reactors with microchannels having 500 micron diameter by means of an intensifier pump (MicroDeBEE) at a pressure of 1862 bar. […] The same experiment was repeated with the same setup for other pharmaceutical excipients and solvents. Trihalose is crystalline form and was used as a model for crystalline molecules to mimic API's.

Continuous dissolution: YES
Structure (SMILES): CC(C)C[C@H](N)C(=O)O [L-Leucine]
